This test in a line: GSK PKIS2: Screen against O. lienalis microfilariae, single point, at 3.1uM to assess reduction in motility. Compounds were also tested for cytotoxicity against Rhesus Monkey LLCMK2 cells. The class given is functional, Onchocerca lienalis, LLC-MK2. The settings on record: CELL_LINE LLCMK2; CELL_SUPPLIER ECACC; CONC 3.1 uM; ORGANISM_SUPPLIER Extracted from peri-umbilical skin obtained from naturally infected cattle in the UK; temperature 37 degree C.

For the molecule `C[C@@H]1CC[C@H](C(=O)NC2CCCCC2)CN1c1cc(-c2ccc3c(N)n[nH]c3c2)nc(N)n1`, the “MOTILITY REDUCTION/CYTOTOXICITY” value was 0%. In the case of `NCC(C(=O)Nc1cc(Br)c(-c2ccnc3[nH]ccc23)s1)c1ccccc1` (configuration not stated), the “MOTILITY REDUCTION/CYTOTOXICITY” value came out at 0%. Consider `O=c1cc(N2CCOCC2)nc2n(Cc3cccc(Cl)c3)ccn12`, for which the “MOTILITY REDUCTION/CYTOTOXICITY” value came to 0%. For `COc1ccccc1-c1ccc2c(NC(=O)C3CC3)n[nH]c2n1`, the “MOTILITY REDUCTION/CYTOTOXICITY” value turned out to be 0%.

On to `COc1ccc(CNC(=O)NC2CCN(c3ccnc(Nc4ccc(F)cc4)n3)C2)cc1` (configuration not stated), for which the “MOTILITY REDUCTION/CYTOTOXICITY” value turned out to be 0%. As to `O=C(Nc1n[nH]c2nc(-c3cccc(O)c3)ccc12)C1CC1`, the “MOTILITY REDUCTION/CYTOTOXICITY” value was found to be 0%. The result for `CSc1ccc(NC2=C(c3ccccc3Cl)C(=O)NC2=O)cc1` reads 0%. Take `CC(C)N1CCC(n2cnc(-c3ccc(F)cc3)c2-c2ccnc(N)n2)CC1`: the “MOTILITY REDUCTION/CYTOTOXICITY” value came to 0%. As to `Cc1cc(Nc2nc(-c3cccc(C)n3)nc3ccccc23)ccn1`, the “MOTILITY REDUCTION/CYTOTOXICITY” value is 0%.

For `O=C1NC(=O)C(c2ccccc2Cl)=C1Nc1ccccc1`, the “MOTILITY REDUCTION/CYTOTOXICITY” value is given as 0%. As to `COc1ccc(Nc2nccc(N3CCC(NC(=O)C(C)c4ccc(Cl)cc4)C3)n2)cc1` (configuration not stated), the “MOTILITY REDUCTION/CYTOTOXICITY” value came out at 33.4%. Regarding `Cc1cc(-c2ccc3c(c2)CC[C@@H](N[C@@H](C)c2ccccc2)C3)cnc1N`, the “MOTILITY REDUCTION/CYTOTOXICITY” value is 33.4%. Turning to `Cc1ccc(CC(=O)N2CCc3cc(-c4cn(C)c5ncnc(N)c45)ccc32)cc1`, the “MOTILITY REDUCTION/CYTOTOXICITY” value is reported as 0%. Next, `COc1cc(Nc2ccnc3cc(-c4ccncc4)ccc23)cc(OC)c1OC`: 33.4%; `CN(c1ccc(NC(=O)N2CCN(CCCN3CCOCC3)CC2)cc1)c1ccnc(Nc2ccc(CS(C)(=O)=O)cc2)n1`: 0%. With `COc1ccccc1CNC(=O)c1cc(C(=O)c2ccccc2C)c[nH]1`, the “MOTILITY REDUCTION/CYTOTOXICITY” value is recorded as 86.7%. With `COc1ccc(C)c(Nc2ccnc(Nc3ccc(-c4cnc[nH]4)cc3)n2)c1`, the “MOTILITY REDUCTION/CYTOTOXICITY” value was determined as 0%.

For `COc1cccc(-c2ccc3c(NC(=O)C4CC4)n[nH]c3n2)c1`, the “MOTILITY REDUCTION/CYTOTOXICITY” value turned out to be 20%.

Turning to `CN(C)CCOc1ccc(-c2cc(-c3ccc(Cl)c(O)c3)c(-c3ccncc3)[nH]2)cc1`, the “MOTILITY REDUCTION/CYTOTOXICITY” value was 0%.

On to `COc1ccc2nc(-c3cccc(C)n3)nc(Nc3ccncc3)c2c1`, for which the “MOTILITY REDUCTION/CYTOTOXICITY” value is reported as 0%. In the case of `N#Cc1cnc2cc(-c3cnc(CNCCN4CCOCC4)s3)ccc2c1Nc1ccc(Oc2ccccc2)cc1`, the “MOTILITY REDUCTION/CYTOTOXICITY” value was found to be 16.7%. Turning to `C[C@@H](Oc1cc(-n2cnc3ccc(-c4ccncc4)cc32)sc1C(N)=O)c1ccccc1Cl`, the “MOTILITY REDUCTION/CYTOTOXICITY” value is recorded as 0%. As to `NCC(NC(=O)c1cc(-c2cn[nH]c2)c(-c2ccnc3[nH]ccc23)s1)c1ccccc1` (configuration not stated), the “MOTILITY REDUCTION/CYTOTOXICITY” value is on record as 0%.

Turning to `COC(=O)c1cccc(NC(=O)NC2CCN(c3ccnc(Nc4cc(OC)c(OC)c(OC)c4)n3)C2)c1` (configuration not stated), the “MOTILITY REDUCTION/CYTOTOXICITY” value turned out to be 66.7%. Take `COc1cccc(-n2cnc3c(N)ncnc32)c1`: the “MOTILITY REDUCTION/CYTOTOXICITY” value is 0%. Turning to `COc1cc2ncn(-c3cc(OCC4CCCCC4)c(C(N)=O)s3)c2cc1OC`, the “MOTILITY REDUCTION/CYTOTOXICITY” value came out at 33.4%. Consider `O=C(NCc1cccs1)c1cc(C(=O)c2c(Cl)cccc2Cl)c[nH]1`, for which the “MOTILITY REDUCTION/CYTOTOXICITY” value is 0%.

As for `COc1ccc(Nc2nccc(N3CCC(NC(=O)Nc4ccc5c(c4)OCO5)C3)n2)cc1` (configuration not stated), the “MOTILITY REDUCTION/CYTOTOXICITY” value amounted to 20%. Take `COc1cc(Nc2nccc(-c3c(-c4cccc(NC(=O)c5c(F)cccc5F)c4)nn4ccccc34)n2)cc(OC)c1OC`: the “MOTILITY REDUCTION/CYTOTOXICITY” value is given as 20%. As to `FC(F)(F)c1ccc(-c2ncn(CCCN3CCOCC3)c2-c2ccncc2)cc1`, the “MOTILITY REDUCTION/CYTOTOXICITY” value stood at 40%. For the molecule `O=C(Nc1cccc(-c2nn3ccccc3c2-c2ccnc(Nc3cccc(C(F)(F)F)c3)n2)c1)c1c(F)cccc1F`, the “MOTILITY REDUCTION/CYTOTOXICITY” value was found to be 26.7%. The result for `O=C1NC(=O)C(N2CCc3ccccc32)=C1c1cccc(Cl)c1` reads 0%.

The record behind these values is ChEMBL document CHEMBL3988181, “GlaxoSmithKline Published Kinase Inhibitor Set 2 Onchocerca lienalis Screening Data”.
